Consider three molecules from ChEMBL document CHEMBL1240428, “Conventional and microwave assisted synthesis of some new N-[(4-oxo-2-substituted aryl -1, 3-thiazolidine)-acetamidyl]-5-nitroindazoles and its antimicrobial activity” (2010).

Assay [1] relates to Penicillium citrinum. In words: Antifungal activity against Penicillium citrinum at 50 ug/mL. It is filed as functional. Conditions: read-out: IZ.
Assay [2] relates to Aspergillus flavus. As to the kind of experiment: Antifungal activity against Aspergillus flavus. It is filed as functional.
In assay [3] the test system is Escherichia coli. As to the kind of experiment: Antibacterial activity against Escherichia coli at 100 ug/mL. It is filed as functional. Conditions: read-out: IZ.
Assay [4] relates to Fusarium oxysporum. As to the kind of experiment: Antifungal activity against Fusarium oxysporum. It is filed as functional.
Assay [5] concerns Fusarium oxysporum. As to the kind of experiment: Antifungal activity against Fusarium oxysporum at 50 ug/mL. It is filed as functional. Conditions: read-out: IZ.
Assay [6] concerns Salmonella typhi. In words: Antibacterial activity against Salmonella typhi.
In assay [7] the test system is Escherichia coli. As to the kind of experiment: Antibacterial activity against Escherichia coli at 50 ug/mL. It is filed as functional. The following applies: read-out: IZ.
Assay [8] has as its system Aspergillus flavus. In words: Antifungal activity against Aspergillus flavus at 50 ug/mL. It is filed as functional. Conditions: read-out: IZ.
Assay [9] has as its system Escherichia coli. As to the kind of experiment: Antibacterial activity against Escherichia coli. It is filed as functional.
Assay [10] has as its system Aspergillus flavus. In words: Antifungal activity against Aspergillus flavus at 100 ug/mL. It is filed as functional. Conditions: read-out: IZ.
The subject of assay [11] is Bacillus subtilis. In words: Antibacterial activity against Bacillus subtilis. It is filed as functional.
Assay [12] deals with Salmonella typhi. In words: Antibacterial activity against Salmonella typhi at 50 ug/mL. The following applies: read-out: IZ.
For assay [13], the system named is Bacillus subtilis. In words: Antibacterial activity against Bacillus subtilis at 100 ug/mL. It is filed as functional. Conditions: read-out: IZ.
For assay [14], the system named is Salmonella typhi. As to the kind of experiment: Antibacterial activity against Salmonella typhi at 100 ug/mL. Conditions: read-out: IZ.
Assay [15] relates to Fusarium oxysporum. As to the kind of experiment: Antifungal activity against Fusarium oxysporum at 100 ug/mL. The following applies: read-out: IZ. It is filed as functional.
The test system of assay [16] is Penicillium citrinum. In words: Antifungal activity against Penicillium citrinum at 100 ug/mL. It is filed as functional. Conditions: read-out: IZ.
The test system of assay [17] is Penicillium citrinum. As to the kind of experiment: Antifungal activity against Penicillium citrinum. It is filed as functional.
The test system of assay [18] is Bacillus subtilis. As to the kind of experiment: Antibacterial activity against Bacillus subtilis at 50 ug/mL. It is filed as functional. The following applies: read-out: IZ.

Values after ≈ are worked out from the molar mass of the structure shown.

One may read the MIC as the lowest concentration found to suppress growth. A higher MIC goes with weaker potency. Take `O=C(Cn1ncc2cc([N+](=O)[O-])ccc21)N/N=C/c1ccccc1O`: the zone of inhibition at 50 µg/mL in the assay on Penicillium citrinum [1] worked out at 12 mm; in the assay with Fusarium oxysporum [5], 16.2 mm; in the assay with Escherichia coli [7] it was 15.4 mm; in the assay with Aspergillus flavus [8] it was 14.9 mm; in the assay with Salmonella typhi [12], 13.8 mm; in the assay with Bacillus subtilis [18], 12.8 mm. For the same molecule, the MIC was determined as 19 µg/mL (≈ 56 µM) against Aspergillus flavus [2]; 15 µg/mL (≈ 44.2 µM) in the assay on Fusarium oxysporum [4]; 20 µg/mL (≈ 58.9 µM) against Salmonella typhi [6]; 20 µg/mL (≈ 58.9 µM) against Escherichia coli [9]; 25 µg/mL (≈ 73.7 µM) against Bacillus subtilis [11]; 28 µg/mL (≈ 82.5 µM) in the assay with Penicillium citrinum [17]. In addition, the zone of inhibition at 100 µg/mL was found to be 18 mm in the assay with Escherichia coli [3]; 18 mm in the assay on Aspergillus flavus [10]; 16 mm in the assay on Bacillus subtilis [13]; 17.5 mm with Salmonella typhi [14]; 18.5 mm with Fusarium oxysporum [15]; 16.8 mm in the assay with Penicillium citrinum [16].

For `O=C(Cn1ncc2cc([N+](=O)[O-])ccc21)N/N=C/c1cccc([N+](=O)[O-])c1`, the zone of inhibition at 50 µg/mL in the assay with Penicillium citrinum [1] stood at 19 mm; in the assay with Fusarium oxysporum [5] it was 22.9 mm; with Escherichia coli [7] it was 20.9 mm; with Aspergillus flavus [8], 22.5 mm; with Salmonella typhi [12], 20 mm; with Bacillus subtilis [18] it was 18.7 mm. For the same molecule, the minimal inhibitory concentration (MIC) with Aspergillus flavus [2] was 13 µg/mL (≈ 35.3 µM); in the assay on Fusarium oxysporum [4], 11 µg/mL (≈ 29.9 µM); with Salmonella typhi [6], 15 µg/mL (≈ 40.7 µM); against Escherichia coli [9] it was 15 µg/mL (≈ 40.7 µM); in the assay on Bacillus subtilis [11] it was 16 µg/mL (≈ 43.4 µM); against Penicillium citrinum [17] it was 18 µg/mL (≈ 48.9 µM). Further, the zone of inhibition at 100 µg/mL was determined as 23.5 mm in the assay on Escherichia coli [3]; 24.9 mm with Aspergillus flavus [10]; 21.9 mm in the assay on Bacillus subtilis [13]; 23.6 mm with Salmonella typhi [14]; 25.4 mm with Fusarium oxysporum [15]; 23.8 mm in the assay on Penicillium citrinum [16].

As to `O=C(Cn1ncc2cc([N+](=O)[O-])ccc21)N/N=C/c1cccc(Br)c1`, the zone of inhibition at 50 µg/mL came to 14.5 mm with Penicillium citrinum [1]; 18.8 mm in the assay with Fusarium oxysporum [5]; 17.4 mm in the assay on Escherichia coli [7]; 17.8 mm in the assay on Aspergillus flavus [8]; 15.9 mm in the assay on Salmonella typhi [12]; 15.1 mm with Bacillus subtilis [18]. The MIC with Aspergillus flavus [2] was determined as 18 µg/mL (≈ 44.8 µM); with Fusarium oxysporum [4] it was 15 µg/mL (≈ 37.3 µM); against Salmonella typhi [6], 18 µg/mL (≈ 44.8 µM); with Escherichia coli [9], 18 µg/mL (≈ 44.8 µM); in the assay with Bacillus subtilis [11], 21 µg/mL (≈ 52.2 µM); with Penicillium citrinum [17], 25 µg/mL (≈ 62.2 µM). For the same molecule, the zone of inhibition at 100 µg/mL in the assay on Escherichia coli [3] turned out to be 20.1 mm; in the assay with Aspergillus flavus [10], 20.9 mm; in the assay with Bacillus subtilis [13], 18.3 mm; in the assay on Salmonella typhi [14], 20 mm; with Fusarium oxysporum [15] it was 20.7 mm; in the assay with Penicillium citrinum [16], 19 mm.
